What was measured:
Experiment in all cases: relative viability (nuclei count vs DMSO), 5 days (fraction); higher = more cells survive
201T = test system: 201T
Procedure, shortened: (§1)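 One day after seeding in 1536-well plates, lung cancer cell lines were dosed by pin tool. Dosing was either single-drug or a fixed anchor-drug dose plus five library-drug doses (not always all listed) in √10 steps. After 5 days, nuclei were stained in one fix-and-stain step and counted on 4× images, and relative viability is the nuclei count of treated wells over that of vehicle wells, given as the median of duplicate plates.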

LCLC-97TM1 = test system: LCLC-97TM1
Procedure, shortened: as §1

NCI-H650 = test system: NCI-H650
Procedure, shortened: as §1

A-427 = test system: A-427
Procedure, shortened: as §1

NCI-H460 = test system: NCI-H460
Procedure, shortened: as §1

NCI-H727 = test system: NCI-H727
Procedure, shortened: as §1

NCI-H2023 = test system: NCI-H2023
Procedure, shortened: as §1

BEN = test system: BEN
Procedure, shortened: as §1

NCI-H661 = test system: NCI-H661
Procedure, shortened: as §1

NCI-H1650 = test system: NCI-H1650
Procedure, shortened: as §1

NCI-H1651 = test system: NCI-H1651
Procedure, shortened: as §1

PC-3 [JPC-3] = test system: PC-3 [JPC-3]
Procedure, shortened: as §1

NCI-H596 = test system: NCI-H596
Procedure, shortened: as §1

NCI-H520 = test system: NCI-H520
Procedure, shortened: as §1

H3255 = test system: H3255
Procedure, shortened: as §1

LC-2-ad = test system: LC-2-ad
Procedure, shortened: as §1

NCI-H2087 = test system: NCI-H2087
Procedure, shortened: as §1

CAL-12T = test system: CAL-12T
Procedure, shortened: as §1

ABC-1 = test system: ABC-1
Procedure, shortened: as §1

NCI-H1915 = test system: NCI-H1915
Procedure, shortened: as §1

NCI-H441 = test system: NCI-H441
Procedure, shortened: as §1

With `CC(=O)O[C@@]12CO[C@@H]1C[C@H](O)[C@@]1(C)C(=O)[C@H](O)C3=C(C)[C@@H](OC(=O)[C@H](O)[C@@H](NC(=O)OC(C)(C)C)c4ccccc4)C[C@@](O)([C@@H](OC(=O)c4ccccc4)[C@H]21)C3(C)C` [Docetaxel] + CC(C)C[C@H](NC(=O)[C@H](Cc1ccccc1)NC(=O)c1cnccn1)B(O)O [Bortezomib] (partner 0.002 µM) the relative viability (201T; first compound 0.0002 µM) was 1.07, the relative viability (201T; first compound 0.000632 µM) was 1.1 and the relative viability (201T; first compound 0.002 µM) was 1.03. It also gave a relative viability (201T; first compound 0.006325 µM) of 0.624, a relative viability (201T; first compound 0.02 µM) of 0.425 and a relative viability (LCLC-97TM1; first compound 0.0002 µM) of 0.624. For the same compound, the relative viability (LCLC-97TM1; first compound 0.000632 µM) was 0.125, the relative viability (LCLC-97TM1; first compound 0.002 µM) was 0.106 and the relative viability (LCLC-97TM1; first compound 0.006325 µM) was 0.083. The relative viability (LCLC-97TM1; first compound 0.02 µM) was 0.051, the relative viability (NCI-H650; first compound 0.0002 µM) was 0.636 and the relative viability (NCI-H650; first compound 0.000632 µM) was 0.425. For the same compound, the relative viability (NCI-H650; first compound 0.002 µM) was 0.309, the relative viability (NCI-H650; first compound 0.006325 µM) was 0.233 and the relative viability (NCI-H650; first compound 0.02 µM) was 0.196. It also gave a relative viability (A-427; first compound 0.0002 µM) of 0.949, a relative viability (A-427; first compound 0.000632 µM) of 0.964 and a relative viability (A-427; first compound 0.002 µM) of 0.656. For the same compound, the relative viability (A-427; first compound 0.006325 µM) was 0.275, the relative viability (A-427; first compound 0.02 µM) was 0.141 and the relative viability (NCI-H460; first compound 0.0002 µM) was 0.959. The relative viability (NCI-H460; first compound 0.000632 µM) was 0.735, the relative viability (NCI-H460; first compound 0.002 µM) was 0.0916 and the relative viability (NCI-H460; first compound 0.006325 µM) was 0.0162. It also gave a relative viability (NCI-H460; first compound 0.02 µM) of 0.0121, a relative viability (NCI-H727; first compound 0.0002 µM) of 0.795 and a relative viability (NCI-H727; first compound 0.000632 µM) of 0.855. The relative viability (NCI-H727; first compound 0.002 µM) was 0.474, the relative viability (NCI-H727; first compound 0.006325 µM) was 0.473 and the relative viability (NCI-H727; first compound 0.02 µM) was 0.483. For the same compound, the relative viability (NCI-H2023; first compound 0.0002 µM) was 0.89, the relative viability (NCI-H2023; first compound 0.000632 µM) was 0.456 and the relative viability (NCI-H2023; first compound 0.002 µM) was 0.134. For the same compound, the relative viability (NCI-H2023; first compound 0.006325 µM) was 0.101, the relative viability (NCI-H2023; first compound 0.02 µM) was 0.0677 and the relative viability (BEN; first compound 0.0002 µM) was 0.612. For the same compound, the relative viability (BEN; first compound 0.000632 µM) was 0.644, the relative viability (BEN; first compound 0.002 µM) was 0.341 and the relative viability (BEN; first compound 0.006325 µM) was 0.263. The relative viability (BEN; first compound 0.02 µM) was 0.164, the relative viability (NCI-H661; first compound 0.0002 µM) was 0.702 and the relative viability (NCI-H661; first compound 0.000632 µM) was 0.784. For the same compound, the relative viability (NCI-H661; first compound 0.002 µM) was 0.68, the relative viability (NCI-H661; first compound 0.006325 µM) was 0.634 and the relative viability (NCI-H661; first compound 0.02 µM) was 0.224. For the same compound, the relative viability (NCI-H1650; first compound 0.0002 µM) was 0.2, the relative viability (NCI-H1650; first compound 0.000632 µM) was 0.196 and the relative viability (NCI-H1650; first compound 0.002 µM) was 0.204. For the same compound, the relative viability (NCI-H1650; first compound 0.006325 µM) was 0.181, the relative viability (NCI-H1650; first compound 0.02 µM) was 0.201 and the relative viability (NCI-H1651; first compound 0.0002 µM) was 0.802. It also gave a relative viability (NCI-H1651; first compound 0.000632 µM) of 0.926, a relative viability (NCI-H1651; first compound 0.002 µM) of 0.744 and a relative viability (NCI-H1651; first compound 0.006325 µM) of 0.22. For the same compound, the relative viability (NCI-H1651; first compound 0.02 µM) was 0.137, the relative viability (PC-3 [JPC-3]; first compound 0.0002 µM) was 0.794 and the relative viability (PC-3 [JPC-3]; first compound 0.000632 µM) was 0.959. It also gave a relative viability (PC-3 [JPC-3]; first compound 0.002 µM) of 0.735, a relative viability (PC-3 [JPC-3]; first compound 0.006325 µM) of 0.263 and a relative viability (PC-3 [JPC-3]; first compound 0.02 µM) of 0.193. For the same compound, the relative viability (NCI-H596; first compound 0.0002 µM) was 0.81, the relative viability (NCI-H596; first compound 0.000632 µM) was 1.15 and the relative viability (NCI-H596; first compound 0.002 µM) was 0.812. It also gave a relative viability (NCI-H596; first compound 0.006325 µM) of 0.723, a relative viability (NCI-H596; first compound 0.02 µM) of 0.423 and a relative viability (NCI-H520; first compound 0.0002 µM) of 0.45. It also gave a relative viability (NCI-H520; first compound 0.000632 µM) of 0.233, a relative viability (NCI-H520; first compound 0.002 µM) of 0.251 and a relative viability (NCI-H520; first compound 0.006325 µM) of 0.172. For the same compound, the relative viability (NCI-H520; first compound 0.02 µM) was 0.108, the relative viability (H3255; first compound 0.0002 µM) was 0.864 and the relative viability (H3255; first compound 0.000632 µM) was 0.497. The relative viability (H3255; first compound 0.002 µM) was 0.489, the relative viability (H3255; first compound 0.006325 µM) was 0.284 and the relative viability (H3255; first compound 0.02 µM) was 0.272. For the same compound, the relative viability (LC-2-ad; first compound 0.0002 µM) was 0.702, the relative viability (LC-2-ad; first compound 0.002 µM) was 0.125 and the relative viability (LC-2-ad; first compound 0.006325 µM) was 0.116. For the same compound, the relative viability (LC-2-ad; first compound 0.02 µM) was 0.11, the relative viability (NCI-H2087; first compound 0.0002 µM) was 0.701 and the relative viability (NCI-H2087; first compound 0.000632 µM) was 0.665. For the same compound, the relative viability (NCI-H2087; first compound 0.002 µM) was 0.28, the relative viability (NCI-H2087; first compound 0.006325 µM) was 0.224 and the relative viability (NCI-H2087; first compound 0.02 µM) was 0.142. The relative viability (CAL-12T; first compound 0.0002 µM) was 0.822, the relative viability (CAL-12T; first compound 0.000632 µM) was 0.404 and the relative viability (CAL-12T; first compound 0.002 µM) was 0.348. For the same compound, the relative viability (CAL-12T; first compound 0.006325 µM) was 0.271, the relative viability (CAL-12T; first compound 0.02 µM) was 0.148 and the relative viability (ABC-1; first compound 0.0002 µM) was 0.298. For the same compound, the relative viability (ABC-1; first compound 0.000632 µM) was 0.334, the relative viability (ABC-1; first compound 0.002 µM) was 0.306 and the relative viability (ABC-1; first compound 0.006325 µM) was 0.247. The relative viability (ABC-1; first compound 0.02 µM) was 0.278, the relative viability (NCI-H1915; first compound 0.0002 µM) was 0.905 and the relative viability (NCI-H1915; first compound 0.000632 µM) was 0.95. The relative viability (NCI-H1915; first compound 0.002 µM) was 0.577, the relative viability (NCI-H1915; first compound 0.006325 µM) was 0.147 and the relative viability (NCI-H1915; first compound 0.02 µM) was 0.116. It also gave a relative viability (NCI-H441; first compound 0.0002 µM) of 0.449, a relative viability (NCI-H441; first compound 0.000632 µM) of 0.276 and a relative viability (NCI-H441; first compound 0.002 µM) of 0.208. The relative viability (NCI-H441; first compound 0.006325 µM) was 0.188 and the relative viability (NCI-H441; first compound 0.02 µM) was 0.179.

— the supplement of paper PMC10307832
